# Source: PubChem BioAssay (NCI)
#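 1) Cells in 96-well plates. 2) Compound, 48 h, 5 concentrations. 3) Linear interpolation between surrounding doses. 4) Unreached endpoint = highest concentration. TGI marks complete inhibition of growth.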
# Assays:
# Experiment in all cases: NCI tumour cell line growth inhibition, 48 h
# LOX IMVI melanoma = system: LOX IMVI melanoma
# HCC-2998 colon = system: HCC-2998 colon
# UACC-62 melanoma = system: UACC-62 melanoma
# DU-145 prostate = system: DU-145 prostate
# KM12 colon = system: KM12 colon
# MOLT-4 leukemia = system: MOLT-4 leukemia
# RXF 393 renal = system: RXF 393 renal
# SK-MEL-28 melanoma = system: SK-MEL-28 melanoma
# SNB-19 CNS = system: SNB-19 CNS
# HOP-62 NSCLC = system: HOP-62 NSCLC
# MCF7 breast = system: MCF7 breast
# EKVX NSCLC = system: EKVX NSCLC
# K-562 leukemia = system: K-562 leukemia
# SK-MEL-2 melanoma = system: SK-MEL-2 melanoma
# HOP-92 NSCLC = system: HOP-92 NSCLC
# PC-3 prostate = system: PC-3 prostate
# T-47D breast = system: T-47D breast
# HCT-15 colon = system: HCT-15 colon
# HCT-116 colon = system: HCT-116 colon
# UO-31 renal = system: UO-31 renal
# A549 NSCLC = system: A549 NSCLC
# A498 renal = system: A498 renal
# SF-268 CNS = system: SF-268 CNS
# ACHN renal = system: ACHN renal
# BT-549 breast = system: BT-549 breast
# HS 578T breast = system: HS 578T breast
# SF-295 CNS = system: SF-295 CNS
# NCI/ADR-RES ovarian = system: NCI/ADR-RES ovarian
# SN12C renal = system: SN12C renal
# NCI-H23 lung = system: NCI-H23 lung
# SNB-75 CNS = system: SNB-75 CNS
# OVCAR-8 ovarian = system: OVCAR-8 ovarian
# SK-OV-3 ovarian = system: SK-OV-3 ovarian
# MDA-MB-435 = system: MDA-MB-435
# SK-MEL-5 melanoma = system: SK-MEL-5 melanoma
# OVCAR-3 ovarian = system: OVCAR-3 ovarian
# OVCAR-5 ovarian = system: OVCAR-5 ovarian
# CAKI-1 renal = system: CAKI-1 renal
# IGROV1 ovarian = system: IGROV1 ovarian
# MALME-3M melanoma = system: MALME-3M melanoma
# OVCAR-4 ovarian = system: OVCAR-4 ovarian
# NCI-H460 lung = system: NCI-H460 lung
# RPMI-8226 leukemia = system: RPMI-8226 leukemia
# NCI-H522 lung = system: NCI-H522 lung
# UACC-257 melanoma = system: UACC-257 melanoma
# TK-10 renal = system: TK-10 renal
# 786-0 renal = system: 786-0 renal
# U251 CNS = system: U251 CNS
# HT29 colon = system: HT29 colon
# COLO 205 colon = system: COLO 205 colon
# SR leukemia = system: SR leukemia
# M14 melanoma = system: M14 melanoma
# SW-620 colon = system: SW-620 colon
# MDA-MB-231 breast = system: MDA-MB-231 breast
structure (smiles),measurement,setting,value
CN(C)CCC=C1c2ccccc2C=Cc2ccccc21,TGI,LOX IMVI melanoma,31.6 µM
same,TGI,HCC-2998 colon,18.5 µM
same,TGI,UACC-62 melanoma,30.3 µM
same,TGI,DU-145 prostate,35.4 µM
same,TGI,KM12 colon,35.3 µM
same,TGI,MOLT-4 leukemia,42.6 µM
same,TGI,RXF 393 renal,34.3 µM
same,TGI,SK-MEL-28 melanoma,31.3 µM
same,TGI,SNB-19 CNS,41.7 µM
same,TGI,HOP-62 NSCLC,33 µM
same,TGI,MCF7 breast,29.9 µM
same,TGI,EKVX NSCLC,28.7 µM
same,TGI,K-562 leukemia,56 µM
same,TGI,SK-MEL-2 melanoma,32.3 µM
same,TGI,HOP-92 NSCLC,34.9 µM
same,TGI,PC-3 prostate,35 µM
same,TGI,T-47D breast,44.8 µM
same,TGI,HCT-15 colon,33.1 µM
same,TGI,HCT-116 colon,30.7 µM
same,TGI,UO-31 renal,32 µM
same,TGI,A549 NSCLC,39.6 µM
same,TGI,A498 renal,29.4 µM
same,TGI,SF-268 CNS,30.9 µM
same,TGI,ACHN renal,30.9 µM
same,TGI,BT-549 breast,31.8 µM
same,TGI,HS 578T breast,42.3 µM
same,TGI,SF-295 CNS,32.8 µM
same,TGI,NCI/ADR-RES ovarian,31.2 µM
same,TGI,SN12C renal,32.5 µM
same,TGI,NCI-H23 lung,35.1 µM
same,TGI,SNB-75 CNS,31.1 µM
same,TGI,OVCAR-8 ovarian,30.5 µM
same,TGI,SK-OV-3 ovarian,31.4 µM
same,TGI,MDA-MB-435,36.5 µM
same,TGI,SK-MEL-5 melanoma,27.5 µM
same,TGI,OVCAR-3 ovarian,31.1 µM
same,TGI,OVCAR-5 ovarian,29.5 µM
same,TGI,CAKI-1 renal,35.7 µM
same,TGI,IGROV1 ovarian,31.5 µM
same,TGI,MALME-3M melanoma,31.9 µM
same,TGI,OVCAR-4 ovarian,68.1 µM
same,TGI,NCI-H460 lung,28.9 µM
same,TGI,RPMI-8226 leukemia,52.3 µM
same,TGI,NCI-H522 lung,37 µM
same,TGI,UACC-257 melanoma,28.3 µM
same,TGI,TK-10 renal,29.8 µM
same,TGI,786-0 renal,30.5 µM
same,TGI,U251 CNS,29.8 µM
same,TGI,HT29 colon,19.2 µM
same,TGI,COLO 205 colon,29.3 µM
same,TGI,SR leukemia,42.8 µM
same,TGI,M14 melanoma,32.6 µM
same,TGI,SW-620 colon,38.2 µM
same,TGI,MDA-MB-231 breast,31.5 µM
